System: 610 metabolites from 63 biochemical pathways
Test: Targeted broad-spectrum plasma metabolomic analysis (LC-MS/MS), paired pre-infusion vs post-infusion (2-days and 6-weeks)
Format: in vivo, human
Procedure: Targeted, broad-spectrum, plasma metabolomic analysis of 610 metabolites from 63 biochemical pathways was performed by high performance liquid chromatography and tandem mass spectrometry (LC-MS/MS) on the samples collected from patients in Example 1. Venous blood was collected between the hours of 8 am and 5 pm, at least 3 hours after the last meal, into lithium-heparin vacutainer tubes (BD #367884). Plasma was separated by centrifugation at 900 g×10 minutes at room temperature within one hour of collection. The resulting fresh lithium-heparin plasma was transferred to labeled 1.2 ml or 2.0 ml externally threaded cryotubes with a minimum headspace air gap for storage at −80° C. for analysis. Samples were analyzed on an AB SCIEX QTRAP 5500 triple quadrupole mass spectrometer equipped with a Turbo V electrospray ionization (ESI) source, Shimadzu LC-20A UHPLC system, and a PAL CTC autosampler. Typically, 90 μl of plasma was thawed on ice and transferred to a 1.7 ml Eppendorf tube. Five (5.0) μl of a cocktail containing 25-35 commercial stable isotope internal standards, and 5.0 μl of 57 stable isotope internal standards that were custom-synthesized in E. coli NCM3722, Caenorhabditis elegans N2, and Komagataella phaffii (ATCC 76273; formerly known as Pichia pastoris) by metabolic labeling with 13C-glucose and 13C-bicarbonate, were added, mixed, and incubated for 10 min at 20° C. to permit small molecules and vitamins in the internal standards to associate with plasma binding proteins. Macromolecules (protein, DNA, RNA, glycans, etc.) were precipitated by extraction with 4 volumes (400 μl) of cold (−20° C.), acetonitrile:methanol (50:50) (LCMS grade, Cat #LC015-2.5 and GC230-4, Burdick & Jackson, Honeywell), vortexed vigorously, and incubated on crushed ice for 10 min, then removed by centrifugation at 16,000 g×10 min at 4° C. The supernatants containing the extracted metabolites and internal standards in the resulting 40:40:20 solvent mix of acetonitrile:methanol:water were transferred to labeled cryotubes and stored at −80° C. for LCMS/MS analysis.
LC-MS/MS analysis was performed by scheduled multiple reaction monitoring (sMRM) under Analyst v1.6.2 software control in both negative and positive mode with rapid polarity switching (50 ms). Nitrogen was used for curtain gas (set to 30), collision gas (set to high), ion source gas 1 and 2 (set to 35). The source temperature was 500° C. Spray voltage was set to −4500 V in negative mode and 5500 V in positive mode. The values for Q1 and Q3 mass-to-charge ratios (m/z), declustering potential (DP), entrance potential (EP), collision energy (CE), and collision cell exit potential (CXP) were determined and optimized for each MRM for each metabolite. Ten microliters of extract was injected by PAL CTC autosampler via a 10 μl stainless steel loop into a 250 mm×2.0 mm, 4 μm polymer based NH2 HPLC column (Asahipak NH2P-40 2E, Showa Denko America, Inc., NY) held at 25° C. for chromatographic separation. The mobile phase was solvent A: 95% water with 20 mM (NH4)2CO3 (Sigma, Fluka Cat #74415-250G-F), 5% acetonitrile, and 38 mM NH4OH (Sigma, Fluka Cat #17837-100ML), final pH 9.75; solvent B: 100% acetonitrile. Separation was achieved using the following gradient: 0-3.5 min: 95% B, 3.6-8 min: 85% B, 8.1-13 min: 75% B, 13.5-35 min: 0% B, 36-46 min: 95% B, 46.1 min: end. The flow rate was 200 μl/min. Pump pressures ranged from 920-2600 psi over the course of the gradient. All the samples were kept at 4° C. during analysis. The chromatographic peaks were identified using MultiQuant (v3.0, Sciex), confirmed by manual inspection, and the peak areas integrated. […]

[1] = Tyrosine and Phenylalanine Metabolism, 2-days
[2] = Tyrosine and Phenylalanine Metabolism, 6-weeks
[3] = Vitamin C (Ascorbate) Metabolism, 6-weeks
[4] = Vitamin D (Calciferol) Metabolism, 2-days
[5] = cis-aconitic acid, plasma, 6-weeks
[6] = lsovalerylglycine, plasma, 6-weeks
[7] = p-Hydroxyphenylacetic acid, plasma, 6-weeks
[8] = plasma, 2-days after infusion vs pre-infusion, Amino Acid Metabolism (not otherwise covered)
[9] = plasma, 2-days after infusion vs pre-infusion, Amino-Sugar, Galactose, & Non-Glucose Metabolism
[10] = plasma, 2-days after infusion vs pre-infusion, Bile Salt Metabolism
[11] = plasma, 2-days after infusion vs pre-infusion, Bioamines and Neurotransmitter Metabolism
[12] = plasma, 2-days after infusion vs pre-infusion, Branch Chain Amino Acid Metabolism
[13] = plasma, 2-days after infusion vs pre-infusion, Cardiolipin Metabolism
[14] = plasma, 2-days after infusion vs pre-infusion, Ceramide Metabolism

## Cc1ccc(C(=O)Nc2ccc(S(=O)(=O)O)c3cc(S(=O)(=O)O)cc(S(=O)(=O)O)c23)cc1NC(=O)c1cccc(NC(=O)Nc2cccc(C(=O)Nc3cc(C(=O)Nc4ccc(S(=O)(=O)O)c5cc(S(=O)(=O)O)cc(S(=O)(=O)O)c45)ccc3C)c2)c1 [Suramin, suramin]
[1]
  Increased: 1
  Observed Hits in the Top 61 Metabolites: 1
[2]
  Decreased: 0
  Fold Enrichment (Obs/Exp): 6.0
  Fraction of Impact (VIP Score) Explained (% of 94.6): 4%
  Impact (Sum VIP Score): 3.7
  Increased: 2
  Observed Hits in the Top 48 Metabolites: 2
Uridine, plasma, 6-weeks
  Linear Ratio: 1.244
  VIP Score: 1.764
  Z Abs: 0.928
  Z Score: 0.928
[3]
  Decreased: 0
  Fold Enrichment (Obs/Exp): 4.5
  Fraction of Impact (VIP Score) Explained (% of 94.6): 2%
  Impact (Sum VIP Score): 2.0
  Increased: 1
  Observed Hits in the Top 48 Metabolites: 1
[4]
  Decreased: 1
  Fold Enrichment (Obs/Exp): 2.4
  Fraction of Impact (VIP Score) Explained (% of 119.7): 3%
  Impact (Sum VIP Score): 3.1
  Increased: 0
  Observed Hits in the Top 61 Metabolites: 1
[5]
  Linear Ratio: 1.278
  VIP Score: 1.852
  Z Abs: 0.928
  Z Score: 0.928
Day 2
  metabolites significantly changed by suramin (total): 61
[6]
  Linear Ratio: 2.027
  VIP Score: 1.888
  Z Abs: 0.901
  Z Score: 0.901
[7]
  Linear Ratio: 1.306
  VIP Score: 2.203
  Z Abs: 2.226
  Z Score: 2.226
plasma
  1-Methyl-adenine (1-MA): increased
  AICAR: increased
  cAMP: decreased
  dGDP: decreased
[8]
  Linear Ratio, Alanine: 1.193
  VIP Score, Alanine: 1.776
  Z Abs, Alanine: 1.066
  Z Score, Alanine: 1.066
[9]
  Linear Ratio, Myoinositol: 1.286
  VIP Score, Myoinositol: 1.645
  Z Abs, Myoinositol: 0.785
  Z Score, Myoinositol: 0.785
[10]
  Linear Ratio, Chenodeoxyglycocholic acid: 2.787
  Linear Ratio, Glycocholic acid: 2.344
  Linear Ratio, Taurocholic acid: 2.183
  Linear Ratio, Taurodeoxycholic acid Pool: 2.614
  VIP Score, Chenodeoxyglycocholic acid: 3.171
  VIP Score, Glycocholic acid: 3.090
  VIP Score, Taurocholic acid: 2.615
  VIP Score, Taurodeoxycholic acid Pool: 3.048
  Z Abs, Chenodeoxyglycocholic acid: 1.610
  Z Abs, Glycocholic acid: 2.020
  Z Abs, Taurocholic acid: 1.102
  Z Abs, Taurodeoxycholic acid Pool: 1.326
  Z Score, Chenodeoxyglycocholic acid: 1.610
  Z Score, Glycocholic acid: 2.020
  Z Score, Taurocholic acid: 1.102
  Z Score, Taurodeoxycholic acid Pool: 1.326
[11]
  Linear Ratio, Dopamine: 0.877
  Linear Ratio, L-Glutamic acid: 0.797
  VIP Score, Dopamine: 1.653
  VIP Score, L-Glutamic acid: 1.641
  Z Abs, Dopamine: 0.642
  Z Abs, L-Glutamic acid: 0.619
  Z Score, Dopamine: −0.642
  Z Score, L-Glutamic acid: −0.619
[12]
  Linear Ratio, Isovalerylglycine: 1.951
  Linear Ratio, L-Isoleucine: 1.094
  Linear Ratio, L-Valine: 1.165
  Linear Ratio, Tiglylglycine: 1.141
  VIP Score, Isovalerylglycine: 1.783
  VIP Score, L-Isoleucine: 2.136
  VIP Score, L-Valine: 1.808
  VIP Score, Tiglylglycine: 1.562
  Z Abs, Isovalerylglycine: 0.852
  Z Abs, L-Isoleucine: 0.815
  Z Abs, L-Valine: 0.749
  Z Abs, Tiglylglycine: 0.657
  Z Score, Isovalerylglycine: 0.852
  Z Score, L-Isoleucine: 0.815
  Z Score, L-Valine: 0.749
  Z Score, Tiglylglycine: 0.657
[13]
  Linear Ratio, CL(18:2/18:2/18:2/18:1): 1.102
  Linear Ratio, CL(18:2/18:2/18:2/18:2): 1.181
[14]
  Linear Ratio, Ceramide(d18:1/18:2): 1.337
  VIP Score, Ceramide(d18:1/18:2): 1.521

From patent publication US20190358181A1, “METHODS FOR AUTISM SPECTRUM DISORDER PHARMACOTHERAPY” (priority 2017, published 2019)
